Measured values published in ChEMBL document CHEMBL1141700, “Discovery of the catechol structural moiety as a Stat3 SH2 domain inhibitor by virtual screening” (Bioorg Med Chem Lett, 2008).
Calls of active or inactive are those of the source. The calls are words filed in the database; no cut-off is given here.

Key:
[1] = target: T1, Signal transducer and activator of transcription 3 (Homo sapiens, UniProt P40763); test: Inhibition of Stat3 binding to DNA in human U266 whole cell lysate at 100 ug/ml by ELISA; assay type: cell-free; conditions: U-266
[2] = target: T1, Signal transducer and activator of transcription 3; test: Inhibition of Stat3 binding to DNA in human U266 whole cell lysate by ELISA; assay type: cell-free, U-266
[3] = target: T1, Signal transducer and activator of transcription 3; test: Inhibition of Stat3 phosphorylation in human U266 whole cell lysate by Western blotting; assay type: cell-based; conditions: U-266
[4] = target: Signal transducer and activator of transcription 3 (Mus musculus) (UniProt P42227); test: Displacement of pTyr705 from flag-tagged mouse Stat3 SH2 domain expressed in HEK293 cells up to 200 uM by fluorescence polarization
Chain of Signal transducer and activator of transcription 3 (Mus musculus) (P42227 whole entry, the tested form may be a part): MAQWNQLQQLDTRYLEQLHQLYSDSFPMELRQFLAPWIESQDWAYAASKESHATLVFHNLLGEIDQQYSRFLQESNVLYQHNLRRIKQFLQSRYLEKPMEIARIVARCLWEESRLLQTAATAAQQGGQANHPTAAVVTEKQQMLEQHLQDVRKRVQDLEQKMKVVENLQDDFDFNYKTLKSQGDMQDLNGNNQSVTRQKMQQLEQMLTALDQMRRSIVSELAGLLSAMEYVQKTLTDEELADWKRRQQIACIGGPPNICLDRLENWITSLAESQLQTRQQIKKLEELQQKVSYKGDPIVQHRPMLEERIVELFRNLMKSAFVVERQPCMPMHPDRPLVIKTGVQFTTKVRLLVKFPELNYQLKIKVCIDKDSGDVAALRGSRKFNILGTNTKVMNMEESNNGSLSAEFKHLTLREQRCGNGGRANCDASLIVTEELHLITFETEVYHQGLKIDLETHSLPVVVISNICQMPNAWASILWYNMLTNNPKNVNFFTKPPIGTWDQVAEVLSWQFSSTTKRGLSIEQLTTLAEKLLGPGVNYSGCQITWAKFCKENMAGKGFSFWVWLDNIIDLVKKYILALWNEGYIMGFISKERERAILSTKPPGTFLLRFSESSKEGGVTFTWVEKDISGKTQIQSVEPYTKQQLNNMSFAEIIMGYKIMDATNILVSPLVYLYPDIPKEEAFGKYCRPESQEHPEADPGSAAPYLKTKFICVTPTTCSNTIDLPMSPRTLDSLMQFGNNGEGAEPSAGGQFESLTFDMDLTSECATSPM

T1 sequence (P40763 whole entry): as the sequence (P42227 whole entry, the tested form may be a part) above, with D760E counted along it

**Q.** `Oc1ccc(CC/N=C/c2c(O)ccc3ccccc23)cc1O` was tested. Which inhibition [1] did it give?
**A.** Its inhibition is 50%.

**Q.** `Oc1cccc(-c2nc3ccccc3s2)c1O` was tested. Which inhibition [1] did it give?
**A.** The inhibition was 56%.

**Q.** Which IC50 [2] does the source give for `Cc1oc(C)c2c(=O)cc(-c3ccc(O)c(O)c3)cc(O)c12` here?
**A.** Its IC50 is 106 µM.

**Q.** Which inhibition [1] does the source give for `Oc1ccc(CC/N=C/c2cccc(O)c2O)cc1O` here?
**A.** The inhibition was 51%.

**Q.** `O=C(O)c1ccccc1/N=C\c1ccc(O)c(O)c1` was tested. Which inhibition [1] did it give?
**A.** The inhibition was 8%.

**Q.** Which inhibition [1] does the source give for `O=C(c1ccc(O)c(O)c1)c1cnc(NCc2ccc(F)cc2)s1` here?
**A.** The inhibition was 57%.

**Q.** Which results are given for `O=C(Cc1ccc2c(c1)OCO2)NCCc1ccc(O)c(O)c1`?
**A.** inhibition [1]: 40%; Activity [3]: Active; IC50 [2]: 357 µM; Activity [4]: inactive
